Measured values reported in US7138361B2, “Herbicidal heterocycles” (E. I. du Pont de Nemours and Company, priority 2000, dated 2006).

How the values were obtained:
Assay type in all cases: in vivo
[1] = system: wheat (Triticum aestivum); experiment: Test B postemergence; conditions: 13 to 15 days
Outline: (§1)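 Post-treatment, species sat 13–15 days under greenhouse conditions before visual scoring against controls, 0 (no effect) through 100 (complete control). Application preemergence to sown seeds or postemergence at 1- to 4-leaf stage, using a non-phytotoxic solvent/surfactant formulation.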

[2] = system: crabgrass (Digitaria sanguinalis); experiment: Test B postemergence; conditions: 13 to 15 days
Outline: as §1

[3] = system: blackgrass (Alopecurus myosuroides); experiment: Test B postemergence; conditions: 13 to 15 days
Outline: as §1

[4] = system: cocklebur (Xanthium strumarium); experiment: Test B postemergence; conditions: 13 to 15 days
Outline: as §1

[5] = system: wild oat (Avena fatua); experiment: Test B postemergence; conditions: 13 to 15 days
Outline: as §1

[6] = system: velvetleaf (Abutilon theophrasti); experiment: Test B postemergence; conditions: 13 to 15 days
Outline: as §1

[7] = system: giant foxtail (Setaria faberii); experiment: Test B postemergence; conditions: 13 to 15 days
Outline: as §1

[8] = system: morning glory (Ipomoea hederacea); experiment: Test B postemergence; conditions: 13 to 15 days
Outline: as §1

[9] = system: corn (Zea mays); experiment: Test B postemergence; conditions: 13 to 15 days
Outline: as §1

[10] = system: Surinam grass (Brachiaria decumbens); experiment: Test B postemergence; conditions: 13 to 15 days
Outline: as §1

[11] = system: lambsquarters (Chenopodium album); experiment: Test B postemergence; conditions: 13 to 15 days
Outline: as §1

[12] = system: barnyardgrass (Echinochloa crus-galli); experiment: Test B postemergence; conditions: 13 to 15 days
Outline: as §1

[13] = system: pigweed (Amaranthus retroflexus); experiment: Test B postemergence; conditions: 13 to 15 days
Outline: as §1

[14] = system: duck salad (Heteranthera limosa); experiment: Test B flooded paddy test; conditions: Rate 1000 g/ha, scale of 0 to 100 where 0 is no effect and 100 is complete control, visually evaluated after 13 to 15 days
Outline: (§2)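 Greenhouse-held for 13 to 15 days after treatment at the 2-leaf stage, paddy-grown plants were scored visually against controls on a 0-to-100 control scale; a dash marks no test result.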

[15] = system: smallflower flatsedge (Cyperus difformis); experiment: Test B flooded paddy test; conditions: Rate 1000 g/ha, scale of 0 to 100 where 0 is no effect and 100 is complete control, visually evaluated after 13 to 15 days
Outline: as §2

[16] = system: rice (Oryza saliva); experiment: Test B flooded paddy test; conditions: Rate 1000 g/ha, scale of 0 to 100 where 0 is no effect and 100 is complete control, visually evaluated after 13 to 15 days
Outline: as §2

[17] = system: barnyardgrass (Echinochloa crus-galli); experiment: Test B flooded paddy test; conditions: Rate 1000 g/ha, scale of 0 to 100 where 0 is no effect and 100 is complete control, visually evaluated after 13 to 15 days
Outline: as §2

[18] = system: crabgrass (Digitaria sanguinalis); experiment: Test B preemergence; conditions: scale 0 to 100, 0 no effect, 100 complete control
Outline: as §1

[19] = system: cocklebur (Xanthium strumarium); experiment: Test B preemergence; conditions: scale 0 to 100, 0 no effect, 100 complete control
Outline: as §1

[20] = system: velvetleaf (Abutilon theophrasti); experiment: Test B preemergence; conditions: scale 0 to 100, 0 no effect, 100 complete control
Outline: as §1

[21] = system: giant foxtail (Setaria faberii); experiment: Test B preemergence; conditions: scale 0 to 100, 0 no effect, 100 complete control
Outline: as §1

[22] = system: morning glory (Ipomoea hederacea); experiment: Test B preemergence; conditions: scale 0 to 100, 0 no effect, 100 complete control
Outline: as §1

[23] = system: corn (Zea mays); experiment: Test B preemergence; conditions: scale 0 to 100, 0 no effect, 100 complete control
Outline: as §1

[24] = system: Surinam grass (Brachiaria decumbens); experiment: Test B preemergence; conditions: scale 0 to 100, 0 no effect, 100 complete control
Outline: as §1

[25] = system: lambsquarters (Chenopodium album); experiment: Test B preemergence; conditions: scale 0 to 100, 0 no effect, 100 complete control
Outline: as §1

[26] = system: rice (Oryza saliva); experiment: Test B preemergence; conditions: scale 0 to 100, 0 no effect, 100 complete control
Outline: as §1

[27] = system: barnyardgrass (Echinochloa crus-galli); experiment: Test B preemergence; conditions: scale 0 to 100, 0 no effect, 100 complete control
Outline: as §1

[28] = system: pigweed (Amaranthus retroflexus); experiment: Test B preemergence; conditions: scale 0 to 100, 0 no effect, 100 complete control
Outline: as §1

[29] = system: duck salad (Heteranthera limosa); experiment: Test C flooded paddy test
Outline: (§3)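 Ratings come from visual comparison with control plants after 12 to 14 days in the greenhouse. Each species was at the 2-leaf stage when the flooded paddy was treated. Scores run from 0, meaning no effect, to 100, meaning complete control.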

[30] = system: smallflower flatsedge (Cyperus difformis); experiment: Test C flooded paddy test; conditions: for Flatsedge plant response rating: Flooded Paddy, scale 0 to 100, 0 no effect, 100 complete control; for Plant response rating, Flatsedge: flooded paddy test, scale 0 to 100 (0 no effect, 100 complete control)
Outline: as §3

[31] = system: rice (Oryza saliva); experiment: Test C flooded paddy test
Outline: as §3

[32] = system: barnyardgrass (Echinochloa crus-galli); experiment: Test C flooded paddy test
Outline: as §3

[33] = Rate 125 g/ha, scale 0 (no effect) to 100 (complete control)
[34] = Rate 500 g/ha, scale 0 to 100, 0 is no effect, 100 is complete control
[35] = Flooded Paddy, Rate 500 g/ha, scale 0 to 100
[36] = Flooded Paddy, Rate 250 g/ha, scale 0 to 100, 0 no effect, 100 complete control
[37] = flooded paddy test, Rate 62 g/ha, scale 0 to 100 (0 no effect, 100 complete control)
[38] = flooded paddy test, Rate 125 g/ha, scale 0 to 100 (0 no effect, 100 complete control)

## Cc1ccn(C2SCN(c3cccc(C(F)(F)F)c3)C2=O)n1 (centres unmarked) [Compound 19]
[1]; [33]
  Plant response rating, Wheat: 0
[1]; [34]
  Plant response rating, Wheat: 0
[2]; [33]
  Plant response rating, Crabgrass: 0
[2]; [34]
  Plant response rating, Crabgrass: 20
[3]; [33]
  Plant response rating, Blackgrass: 0
[3]; [34]
  Plant response rating, Blackgrass: 0
[4]; [33]
  Plant response rating, Cocklebur: 20
[4]; [34]
  Plant response rating, Cocklebur: 20
[5]; [33]
  Plant response rating, Wild Oat: 0
[5]; [34]
  Plant response rating, Wild Oat: 0
[6]; [33]
  Plant response rating, Velvetleaf: 10
[6]; [34]
  Plant response rating, Velvetleaf: 20
[7]; [33]
  Plant response rating, Foxtail, Giant: 0
[7]; [34]
  Plant response rating, Foxtail, Giant: 0
[8]; [33]
  Plant response rating, Morningglory: 20
[8]; [34]
  Plant response rating, Morningglory: 30
[9]; [33]
  Plant response rating, Corn: 0
[9]; [34]
  Plant response rating, Corn: 0
[10]; [33]
  Plant response rating, Surinam grass: 0
[10]; [34]
  Plant response rating, Surinam grass: 10
[11]; [33]
  Plant response rating, Lambsquarters: 10
[11]; [34]
  Plant response rating, Lambsquarters: 70
[12]; [33]
  Plant response rating, Barnyardgrass: 0
[12]; [34]
  Plant response rating, Barnyardgrass: 0
[13]; [33]
  Plant response rating, Pigweed: 0
[13]; [34]
  Plant response rating, Pigweed: 0
[14]
  Plant response rating, Ducksalad: 80
[15]
  Plant response rating, Flatsedge: 90
[16]
  Plant response rating, Rice: 0
[17]
  Plant response rating, Barnyardgrass: 60
[18]; Preemergence, Rate 500 g/ha
  Plant response rating, Crabgrass: 0
[18]; preemergence, Rate 125 g/ha
  Plant response rating, Crabgrass: 0
[19]; Preemergence, Rate 500 g/ha
  Plant response rating, Cocklebur: 0
[19]; preemergence, Rate 125 g/ha
  Plant response rating, Cocklebur: 0
[20]; Preemergence, Rate 500 g/ha
  Plant response rating, Velvetleaf: 0
[20]; preemergence, Rate 125 g/ha
  Plant response rating, Velvetleaf: 0
[21]; Preemergence, Rate 500 g/ha
  Plant response rating, Foxtail, Giant: 0
[21]; preemergence, Rate 125 g/ha
  Plant response rating, Foxtail, Giant: 0
[22]; Preemergence, Rate 500 g/ha
  Plant response rating, Morningglory: 0
[22]; preemergence, Rate 125 g/ha
  Plant response rating, Morningglory: 0
[23]; Preemergence, Rate 500 g/ha
  Plant response rating, Corn: 0
[23]; preemergence, Rate 125 g/ha
  Plant response rating, Corn: 0
[24]; Preemergence, Rate 500 g/ha
  Plant response rating, Surinam grass: 20
[24]; preemergence, Rate 125 g/ha
  Plant response rating, Surinam grass: 0
[25]; Preemergence, Rate 500 g/ha
  Plant response rating, Lambsquarters: 60
[25]; preemergence, Rate 125 g/ha
  Plant response rating, Lambsquarters: 0
[26]; Preemergence, Rate 500 g/ha
  Plant response rating, Rice: 0
[26]; preemergence, Rate 125 g/ha
  Plant response rating, Rice: 0
[27]; Preemergence, Rate 500 g/ha
  Plant response rating, Barnyardgrass: 0
[27]; preemergence, Rate 125 g/ha
  Plant response rating, Barnyardgrass: 0
[28]; Preemergence, Rate 500 g/ha
  Plant response rating, Pigweed: 0
[28]; preemergence, Rate 125 g/ha
  Plant response rating, Pigweed: 0
[29]; [35]
  Plant response rating, Ducksalad: 0
[29]; [36]
  Ducksalad plant response rating: 0
[29]; [37]
  Plant response rating, Ducksalad: 0
[29]; [38]
  Plant response rating, Ducksalad: 0
[30]; Rate 250 g/ha
  Flatsedge plant response rating: 0
[30]; Rate 500 g/ha
  Flatsedge plant response rating: 30
[30]; Rate 62 g/ha
  Plant response rating, Flatsedge: 0
[30]; Rate 125 g/ha
  Plant response rating, Flatsedge: 0
[31]; [35]
  Plant response rating, Rice: 0
[31]; [36]
  Rice plant response rating: 0
[31]; [37]
  Plant response rating, Rice: 0
[31]; [38]
  Plant response rating, Rice: 0
[32]; [35]
  Plant response rating, Barnyardgrass: 0
[32]; [36]
  Barnyardgrass plant response rating: 0
[32]; [37]
  Plant response rating, Barnyardgrass: 0
[32]; [38]
  Plant response rating, Barnyardgrass: 0
